Reference: patent US20130324617A1, “CROWN-LIKE STRUCTURES AS A BIOMARKER FOR CANCER RISK AND CANCER PROGNOSIS” (MEMORIAL SLOAN-KETTERING CANCER CENTER, priority 2011, published 2013)

Assays:
THP-1 cells = assay: Pro-inflammatory mediators (TNF-α, IL-1β, Cox-2, PGE2) in saturated fatty acid-treated THP-1 cells; type: cell-based, human; conditions: for induction of TNF-α in THP-1 cells: 0, 2.5, 5, 10 μmol/L saturated fatty acid, 24 hours, real-time PCR
Protocol: (§1) THP-1 cells (ATCC) were maintained in RPMI-1640 medium (Invitrogen) supplemented with 10% FBS. These cells were treated with phorbol 12-myristate 13-acetate (10 ng/mL) overnight to differentiate them into macrophages. Human monocytes (Astarte Biologics) were activated with IFNγ (15 ng/mL) and lipopolysaccharide (15 ng/mL) in RPMI-1640 medium for 4 days. THP-1 cells and blood monocyte-derived macrophages were then treated with saturated fatty acids (Nu-CheK Prep) as indicated. To prepare conditioned medium (CM), the cells were treated with saturated fatty acids for 12 hours in medium comprised of RPMI-1640 and preadipocyte medium (ScienCellTMResearch Laboratories) at a 1:1 ratio. Following treatment with fatty acids, the medium was removed and cells were washed thrice with PBS to remove fatty acids. Subsequently, fresh medium was added for 24 hours. This CM was then collected and centrifuged at 4,000 rpm for 30 minutes to remove cell debris. CM was used to treat preadipocytes.
(§2) Lysates were prepared by treating cells with lysis buffer, sonicating for 20 seconds on ice and centrifuging at 10,000×g for 10 minutes to remove particulate material. The protein concentration of the supernatant was measured by the method of Lowry et al. (Lowry 1951). SDS-PAGE was done under reducing conditions on 10% polyacrylamide gels. The resolved proteins were transferred onto nitrocellulose sheets and incubated with primary antisera. Antibodies to phospho-p65, p65, histone H3, Cox-2 and β-actin were used (Santa Cruz Biotechnology). Secondary antibody to IgG conjugated to horseradish peroxidase was used. The blot was probed with the ECL Western blot detection system.
(§3) Total RNA was isolated using the RNeasy mini kit (Qiagen). For tissue analyses, poly A RNA was prepared with an Oligotex mRNA mini kit (Qiagen). Poly A RNA was reversed transcribed using murine leukemia virus reverse transcriptase and oligo (dT)16 primer. The resulting cDNA was then used for amplification using primers listed Table 1. GAPDH and β-actin were used as endogenous normalization controls for tissue and cell culture analyses, respectively. Real-time PCR was performed using 2×SYBR green PCR master mix on a 7500 Real-time PCR system (Applied Biosystems). Relative fold induction was determined using the ddCT (relative quantification) analysis protocol.
LC/MS/MS analyses were performed using a Tandem Quadrupole Mass Spectrometer (Agilent) equipped with an Agilent 1200 binary pump HPLC system using a modified version of the method of Yang 2006. PGs were chromatographically separated using a Gemini 3-μm C6-phenyl 4.6×100 mm analytical column (Phenomenex). The mobile phase consisted of 0.1% formic acid in water (mobile phase A) and 0.1% formic acid in acetonitrile (mobile phase B). The chromatographic baseline resolution for the PGs of interest was achieved using a linear gradient that went from 20% to 40% mobile phase B for 12 minutes and then from 40% to 70% for 8 minutes. This was then increased to 90% mobile phase B over the next 2 minutes and kept at this level for an additional 3 minutes. The flow rate was 0.8 mL/min with a column temperature of 40° C. The mass spectrometer was operated in negative electrospray ionization mode with capillary voltage of 2.9 kV, a cone gas flow rate of […] and a shear gas flow rate of 12 mL/minute at 350° C. PGs were detected and quantified using multiple reaction mode monitoring of the transitions m/z 351 to 271 for PGE2 and m/z 355 to 275 for PGE2-d4. The results are expressed as nanograms of PGE2 per mg of protein. For measurements of PGE2 in cell culture media, EIA kits were used (Cayman Chemicals).
TNF-α and IL-1β levels were quantified in cell culture media using EIA kits (R & D systems).
Experiments were carried out in vitro to determine if saturated fatty acids stimulated the production of pro-inflammatory molecules by macrophages leading, in turn, to elevated aromatase expression in preadipocytes.

[1] = system: aromatase in human preadipocytes; assay: Induction of aromatase mRNA and activity in preadipocytes by macrophage-derived conditioned medium; type: cell-based; conditions: for aromatase mRNA and activity in human preadipocytes: preadipocytes treated 24 hours
Protocol: Human visceral preadipocytes (ScienCell™) were grown in preadipocyte medium containing 10% FBS.
as §1, §3
To determine aromatase activity, microsomes were prepared from cell lysates and tissues by differential centrifugation using established methods (Subbaramaiah 2006). Aromatase activity was quantified by measurement of the tritiated water released from 1β-[^3H]-androstenedione (Subbaramaiah 2008). The reaction was also performed in the presence of letrozole, a specific aromatase inhibitor, as a specificity control and without NADPH as a background control. Aromatase activity was normalized to protein concentration.
Further, to investigate whether conditioned medium from saturated fatty acid-treated macrophages induced aromatase in preadipocytes, THP-1 cells or human blood monocyte-derived macrophages were treated with 0, 2.5, 5 or 10 μmol/L LA, MA, PA or SA as described above to generate CM (n=6). This CM was used to treat preadipocytes for 24 hours. Aromatase mRNA and activity levels were determined. Treatment with CM derived from either saturated fatty acid-treated THP-1 cells or human blood monocyte-derived macrophages induced aromatase mRNA and activity in human preadipocytes. Neutralizing either TNF-α or IL-1β by incubating the CM from SA-treated cells with neutralizing antibodies to TNF-α, IL-1β or control IgG overnight at 4° C. attenuated CM-mediated induction of aromatase in preadipocytes.
Next, THP-1 cells were transfected as indicated with control siRNA or TNF-α siRNA, IL-1β siRNA or Cox-2 siRNA for 36 hours. Cells were then treated with vehicle (control) or 10 μmol/L SA as described above. The levels of TNFα, IL-1β and PGE2 were measured by enzyme immunoassay in the CM. Cox-2 protein abundance was determined by immunoblotting of whole cell lysates using β-actin was used as a loading control. Preadipocytes were treated with THP-1 cell-derived CM for 24 hours prior to measurements of aromatase mRNA and activity. […] Following treatment, the medium was removed and cells were washed. Subsequently, fresh medium was added for 24 hours to generate CM. PGE2 production was measured in CM. Preadipocytes were treated with THP-1 cell-derived CM for 24 hours prior to measurements of aromatase mRNA and activity. […]

NF-κB = assay: NF-κB-luciferase reporter assay in THP-1 cells; type: cell-based, human; conditions: for NF-κB-luciferase activity in THP-1 cells: 10 μmol/L fatty acid, 24 hours
Protocol: NF-κB-luciferase (Panomics) and pSVβgal (Promega) were transfected into THP-1 cells using the Amaxa system. After 24 hours of incubation, the medium was replaced with basal medium. The activities of luciferase (BD Biosciences) and β-galactosidase were measured in cellular extracts. For siRNA transfections, THP-1 cells were plated at 60% confluence and transfected with non-targeting siRNA or siRNA targeting TNF-α, IL-1β, Cox-2 and p65 using Dharmafect 4 for 36 hours. Subsequently, the cells were treated with vehicle or saturated fatty acids.
To investigate the potential role of the transcription factor NF-κB in saturated fatty acid-mediated induction of TNF-α, IL-1β and Cox-2 in macrophages, transient transfection assays were performed in saturated fatty acid-treated THP-1 cells with an NF-κB-luciferase reporter construct and pSV-βgal constructs.
The effects of BAY11-7082, a pharmacological inhibitor of NF-κB, were evaluated. THP-1 cells were transiently transfected with NF-κB-luciferase and pSV-βgal constructs and cells were subsequently treated with vehicle, 10 μmol/L SA or SA plus 0, 5 or 10 μmol/L of BAY11-7082 (InvivoGen) for 12 hours. NF-κB luciferase activity was normalized to β-galactosidase activity. Additionally, THP-1 cells were treated with vehicle (control), 10 μmol/L SA or SA plus 10 μmol/L BAY11-7082 for 24 hours. Levels of TNF-α protein, IL-1β protein and PGE2 in the CM were determined by enzyme immunoassay. Preadipocytes were treated with THP-1 cell-derived CM for 24 hours prior to measurements of aromatase mRNA and activity.

p65 = assay: Immunoblotting of phospho-p65 and p65 in THP-1 cells; type: cell-based, human; conditions: 30 minutes; for phosphorylation of p65: THP-1 cells, 0, 2.5, 5 or 10 μmol/L fatty acid
Protocol: as §2
The abundance of phospho-p65 was determined by immunoblotting in cytosolic and nuclear preparations of cells treated with vehicle (control) or 10 μmol/L SA for 30 minutes. β-actin and histone H3 were used as cytosolic and nuclear markers, respectively.

NF-κB binding sites = assay: Electrophoretic mobility shift assay of nuclear protein from THP-1 cells; type: cell-based, human; conditions: THP-1 cells, 0, 2.5, 5 or 10 μmol/L SA, 1 hour; EMSA
Protocol: Nuclear extracts were prepared from mouse mammary glands using an EMSA kit (Promega). For binding studies, oligonucleotides containing NF-κB sites (Active Motif) were used. The complementary oligonucleotides were annealed in 20 mmol/L Tris (pH 7.6), 50 mmol/L NaCl, 10 mmol/L MgCl2, and 1 mmol/L dithiothreitol. The annealed oligonucleotide was phosphorylated at the 5′ end with [γ-^32P]ATP and T4 polynucleotide kinase. The binding reaction was performed by incubating 5 μg of nuclear protein in 20 mmol/L HEPES (pH 7.9), 10% glycerol, 300 μg of bovine serum albumin, and 1 μg of poly(dI·dC) in a final volume of 10 μL for 10 minutes at 25° C. The labeled oligonucleotides were added to the reaction mixture and allowed to incubate for an additional 20 minutes at 25° C. The samples were electrophoresed on a 4% nondenaturing polyacrylamide gel. The gel was then dried and subjected to autoradiography at −80° C.
DNA-protein binding complexes to NF-κB binding sites were examined by electrophoretic mobility shift assays (EMSA). Nuclear protein was prepared from THP-1 cells treated with 0, 2.5, 5 or 10 μmol/L of SA for 1 hour. In another experiment, nuclear protein was prepared from THP-1 cells treated with vehicle or 10 μmol/L SA for 1 hour, and the nuclear protein was incubated with normal IgG or different concentrations of antibodies to p65. […]

[2] = 10 μmol/L SA plus 10 μmol/L BAY11-7082, 24 hours, enzyme immunoassay
[3] = CM from THP-1 cells treated with 0, 2.5, 5 or 10 μmol/L fatty acid
[4] = CM from human blood monocyte-derived macrophages treated with 0, 2.5, 5 or 10 μmol/L fatty acid

SMILES	production of increased amounts of IL-1β in CM (THP-1 cells; [2])	production of increased amounts of PGE2 in CM (THP-1 cells; [2])	production of increased amounts of TNF-α in CM (THP-1 cells; [2])	ability of macrophage-derived CM to induce aromatase expression and activity ([1]; following NF-κB inhibition of THP-1 cells with BAY11-7082, preadipocytes treated with CM 24 hours)	SA-mediated activation of NF-κB (NF-κB luciferase activity) (NF-κB; 10 μmol/L SA plus 0, 5 or 10 μmol/L BAY11-7082, 12 hours)	induction of TNF-α in THP-1 cells (THP-1 cells)	aromatase mRNA and activity in human preadipocytes [1, 3]	aromatase mRNA and activity in human preadipocytes [1, 4]	NF-κB-luciferase activity in THP-1 cells (NF-κB)	phosphorylation of p65 (p65)	binding of nuclear protein to a 32P-labeled NF-κB consensus sequence (NF-κB binding sites)	translocation of p65 from cytosol to nucleus (p65; THP-1 cells, 10 μmol/L SA)
Cc1ccc(S(=O)(=O)/C=C/C#N)cc1 [BAY11-7082]	suppressed	suppressed	suppressed	suppressed	suppressed	–	–	–	–	–	–	–
CCCCCCCCCCCC(=O)O [LA, lauric acid]	–	–	–	–	–	dose-dependent induction	induced	induced	–	–	–	–
CCCCCCCCCCCCCC(=O)O [MA, myristic acid]	–	–	–	–	–	dose-dependent induction	induced	induced	–	–	–	–
CCCCCCCCCCCCCCCC(=O)O [PA, palmitic acid]	–	–	–	–	–	dose-dependent induction	induced	induced	induced	stimulated	–	–
CCCCCCCCCCCCCCCCCC(=O)O [SA, stearic acid]	–	–	–	–	–	dose-dependent induction	induced	induced	induced	stimulated	stimulated	stimulated
